Experimental findings from patent publication US9394308B2, “Inhibiting the transient receptor potential A1 ion channel” (Merck Sharp & Dohme Corp., priority 2013, dated 2016) are described below.

Entries after “also recorded” stand apart in the source; their conditions may differ.

Data set [1] is described as follows: Rodent acute tolerability test, liver function tests (Example 5). In kind it is in vivo, Female Sprague Dawley rats. The settings on record: rat; for LFT blood levels ALT and AST (in words): intravenous bolus, about 24 hours post dose; for serum biomarkers of hepatotoxicity (in words): in vivo. The method, then: Compounds of Formula (I) were assessed for acute tolerability in a rodent model at dose levels ranging from 100-200 mg/kg based upon the minimum efficacious dose of each compound. Female Sprague Dawley rats were administered up to a 10 mL/kg dose volume of each compound in 0.9% saline at appropriate concentrations as an intravenous bolus via the lateral tail vein. The animals were observed immediately post dose and for up to twenty four hours post dose and clinical observations were recorded. Additionally, approximately twenty four hours post dose animals were euthanized and blood taken for serum chemistry analysis with a focus on liver function tests (LFTs). The maximum tolerated single dose and LFT results are summarized in Table 3 in FIG. 3, where ( ? ) indicates blood levels of markers for potential liver damage within normal range and (↑) indicates blood levels of markers for potential liver damage elevated above normal range. Referring to the data in Table 3, LFT blood levels of markers for potential liver damage remained within normal range for the compounds of Formula (I), while LFTs were elevated for Comparator Compounds including 5-10 fold elevation above normal for ALT and AST blood levels observed upon administration of Comparator Compound 1.

Data set [2] is described as follows: Aqueous solubility (Example 2). It counts as physicochemical. The conditions noted are these: method of Example 2. The method, then: Compounds of Formula (I) where R^1 is —CH2—R^1a, and R^1a is phosphate, have suitable levels of aqueous solubility for incorporation in a pharmaceutical composition formulated for intravenous administration. Unless otherwise indicated, the aqueous solubility of compounds of Formula (I) in Tables in FIG. 1 was measured using the procedure of Example 2 (Kerns, E. H., Journal of Pharmaceutical Sciences 2001, 90, 1838-1858, incorporated herein by reference). Solubility data was obtained by this method for compounds of Formula (I) and included in FIG. 1. The chromatographic data was performed using (type of HPLC). The column used was an Xbridge Shield RP18 with the following column dimensions: 4.6×30 mm, 3.5 μm. The mobile phase consisted of deionized water (MPA) with trifluoroacetic acid added in at 0.1% (v/v) (MPC) and HPLC-grade acetonitrile (MPB). The mobile phase flow rate was 2.5 mL/min with the column and sampling operating at ambient temperature. UV detection was set to 280 nm. For all samples used for solubility determination, the mobile phase gradient used was as follows in Table 1g below.
Stock solutions of compounds of Formula (I) where R^1 is —CH2—R^1a, and R^1a is phosphate, were prepared in water at 20 mg/mL. Stock solutions of the compounds of Formula (I), wherein R^1 is hydrogen, were prepared in dimethyl acetamide at 20 mg/mL. […]

For another data set, the system named is CFA Cold Allodynia. Description: Rodent cold plate pain model, Complete Freund's Adjuvant (Example 4). The conditions noted are these: rat. In kind it is in vivo. The protocol: CFA-induced pain test method reported in del Camino et al., J. Neurosci., 30 (45):15165-15174, incorporated herein by reference in its entirety. Briefly, the right hind paw is sensitized to cold temperature (allodynic) by administering 0.1 mL of Complete Freund's Adjuvant (CFA) to that paw. Two to four days later, the time it takes for the animal to lift its CFA-injected paw from the cold surface is recorded compared to its un-injected normal left hind paw. […] To avoid tissue damage, the maximum cut-off time is five minutes. Animals that are allodynic (average PWL to the first three pain behaviors<150 seconds for the CFA-injected hind paw: ˜≧50% difference between the normal and CFA-injected paw) are included in the study and subsequently randomized across treatment groups. The following day, the animals in some groups are dosed with a test compound under blinded conditions. Following the one to two hour pre-treatment time, the post-dose PWL readings are taken again. The efficacy of the drug treatment is assessed by comparing the PWL in the drug treatment animals to those that receive the vehicle.

On to `C[C@H]1CCCN1c1ncc(-c2cncc(N(COP(=O)(O)O)C(=O)[C@H](C)n3cnc4c3c(=O)n(C)c(=O)n4C)n2)cn1` [((S)-2-(1,3-dimethyl-2,6-dioxo-1,2,3,6-tetrahydro-7H-purin-7-yl)-N-(6-(2-((S)-2-methylpyrrolidin-1-yl)pyrimidin-5-yl)pyrazin-2-yl)propanamido)methyl dihydrogen phosphate], for which the “LFT blood levels ALT and AST (in words)” value in data set [1] was “did not result in abnormally high levels of LFT compounds ALT or AST”.
Turning to `C[C@H]1CCCN1c1ccc(-c2csc(NC(=O)Cn3cnc4c3c(=O)n(C)c(=O)n4C)n2)cc1F` [Comparator Compound 1, reference compound], the “serum biomarkers of hepatotoxicity (in words)” value in data set [1] was “elevate the serum biomarkers of hepatotoxicity”.
Regarding `C[C@H]1CCCN1c1ncc(-c2cccc(NC(=O)Cn3cnc4c3c(=O)n(C)c(=O)n4C)n2)cn1` [Comparator Compound 2, reference compound], the “serum biomarkers of hepatotoxicity (in words)” value in data set [1] was “did not elevate the serum biomarkers of hepatotoxicity”. The “aqueous solubility (in words)” value in data set [2] is given as “undesirably low aqueous solubility”.
For the compound `C[C@@H](C(=O)N(COP(=O)([O-])O)c1cccc(-c2cnc(N3CCC[C@H]3C(F)(F)F)nc2)n1)n1cnc2c1c(=O)n(C)c(=O)n2C.[Na+]` [Compound 1-A, ((S)-2-(1,3-dimethyl-2,6-dioxo-1,2,3,6-tetrahydro-7H-purin-7-yl)-N-(6-(2-((S)-2-(trifluoromethyl)pyrrolidin-1-yl)pyrimidin-5-yl)pyridin-2-yl)propanamido)methyl dihydrogen phosphate], in data set [1], the “LFT blood levels ALT and AST (in words)” value is recorded as “did not result in abnormally high levels of LFT compounds ALT or AST”. Moreover, the “effect on cold allodynia (in words)” value in the data set on CFA Cold Allodynia (CFA cold plate model) was “analgesic effect on cold allodynia; also recorded: reversal of CFA Cold Allodynia”. Further, the “Paw Withdrawal Latency (PWL) (in words)” value with CFA Cold Allodynia (i.p. administration, CFA model, cold plate 1° C.) was “increased rodent Paw Withdrawal Latency”.
Consider `C[C@@H](C(=O)N(COP(=O)(O)O)c1cncc(-c2cnc(N3CCC[C@H]3C(F)(F)F)nc2)n1)n1cnc2c1c(=O)n(C)c(=O)n2C` [Compound 2-E, ((S)-2-(1,3-dimethyl-2,6-dioxo-1,2,3,6-tetrahydro-7H-purin-7-yl)-N-(6-(2-((S)-2-(trifluoromethyl)pyrrolidin-1-yl)pyrimidin-5-yl)pyrazin-2-yl)propanamido)methyl dihydrogen phosphate], for which the “LFT blood levels ALT and AST (in words)” value in data set [1] was “did not result in abnormally high levels of LFT compounds ALT or AST”.
As for `C[C@@H](C(=O)N(COP(=O)(O)O)c1cncc(-c2cnc(N3CCCC3(C)C)nc2)n1)n1cnc2c1c(=O)n(C)c(=O)n2C` [Compound 3-J, (S)-(2-(1,3-dimethyl-2,6-dioxo-1,2,3,6-tetrahydro-7H-purin-7-yl)-N-(6-(2-(2,2-dimethylpyrrolidin-1-yl)pyrimidin-5-yl)pyrazin-2-yl)propanamido)methyl dihydrogen phosphate], in data set [1], the “LFT blood levels ALT and AST (in words)” value is on record as “did not result in abnormally high levels of LFT compounds ALT or AST”.
